Laboratory results from patent US12691101B2, “Compound and method for preventing or treating of respiratory diseases comprising the same as an active ingredient” (YONSEI UNIVERSITY, UNIVERSITY - INDUSTRY FOUNDATION (UIF), priority 2019, dated 2026).

Experiments:
SCN^− transport = experiment: Epithelial SCN^− transport in IL-4-treated HNE cells; assay type: cell-based, human; settings: 30 μM, 30 minutes
Experimental: Nasal epithelial cells were plated on a transwell permeable supporter and cultured in ALI (air-liquid interface) for 14 days. After completely differentiated epithelial cells were cultured with IL-4 (Invitrogen, 10 ng/mL) for 48 hours, F56 (30 μM) or vehicle was added for 30 minutes. The transwell insert having cells was washed with PBS and the basal side was treated with 1 mL PBS containing 10 mM glucose and 5 μCi S^14CN (total concentration SCN^−: 86 μM). The apical side of the transwell was filled with 0.5 mL PBS containing 5 μM amiloride to block epithelial sodium. Subsequently, the apical fluid was collected every 5 minutes and placed in scintillation vials for evaluation of radioactivity.

NF-κ = experiment: IVIS lung fluorescence in LPS-treated NF-κ reporter/SPC-Cre-ERT2 mice; assay type: in vivo, mouse; settings: 10 mg/kg i.p., 6 hours after LPS
Description: From Orient Bio (Sungnam, Republic of Korea), 8-10-week-old wild-type male C57BL/6J mice having a body weight of 20-24 g were purchased. Food and water were provided to all the animals, and the similar optical cycle of day and night was applied. Transfected NF-κ reporter/SPC-Cre-ERT2 mice were used for IVIS in the present invention. Briefly, NF-κ reporter mice contain ROSA26 lox-STOP-lox-cassette inserted between a promoter and NF-κ gene. In general, a stop gene is positioned between loxP and loxP, and NF-κ is not expressed. NF-κ reporter/SPC-Cre-ERT2 mice were obtained by raising ROSA26R mice to surfactant protein C(SPC)-Cre-ERT2 mice. The Cre-ERT2 recombinase activity in these transfected mice was induced by tamoxifen. These NF-κ reporter/SPC-Cre-ERT2 mice express NF-κ activity in the alveolar epithelium by one of dTomato fluorescence or luciferase in presence of tamoxifen. […]
Imaging of living animals and organs was performed using IVIS […] imaging system Caliper Life Sciences, Preston Brook Runcorn, UK). […] Fluorescence excite light was provided by a halogen lamp combined with an appropriate excite filter. […] The fluorescence imaging was obtained with an excitation wavelength of 554 nm and an emission wavelength of 581 nm (dTomato). […] In Living Image software (version 3.2, Caliper Life Sciences), using an area of interest tool, fluorescence was quantified.

[1] = test system: AN01, CFTR and ENaC ion channel activity; experiment: Short circuit current in HNE cells; assay type: cell-based, human; settings: long-term treatment (48 hours)
Experimental: (A) Representative tracing of intracellular pH of treated (grey line) and IL-4 (10 ng/ml) treated HNE cells. Pendrin was inhibited by F56 ([…]). (B) The mRNA expression level of pendrin was determined at the indicated time after treatment of F56 ([…]) by real-time quantitative PCR in IL-4-treated HBE cells (mean±S.E., n=3). (C) The Cl^−/HCO3^− exchange activity was measured in IL-4-treated HBE cells. F56 was pretreated for 5 minutes. (D, E) Short circuit current record of HNE cells. Representative tracing showing the effect of F56 on the ENaC, CFTR and CaCC channel activity. After exposing to F56 ([…]) for 48 hours, in presence or absence of IL-4, the channel activity was measured. Amiloride (100 μM), forskolin (20 μM, CFTRinh-172 (10 μM) and ATP (100 μM) were added to the apical bath. (F) The AN01, CFTR and ENaC mRNA expression level was determined at the indicated time after treatment of F56 ([…]) by real-time quantitative PCR in IL-4-treated HNE cells (mean±S.E., n=5) * P<0.05, ** P<0.01, *** P<0.001.
Snapwell inserts containing the primary culture of AN01- and CFTR-expressing FRT and human nasal cavity epithelium (HNE) cells were equipped on Ussing chamber (Physiologic Instruments, San Diego, CA, USA). […] Using Labchart Pro 7 (AD Instruments), data were recorded and analyzed. […]

Duox2 mRNA = Duox2 mRNA expression in LPS-treated hAEC, real-time PCR; assay type: cell-based, human
Experimental: The total messenger RNA (mRNA) was extracted using TRIzol reagent (Invitrogen, Carlsbad, CA, USA), and was reverse-transcribed using a random hexamer primer, an oligo(dT) primer and SuperScript® III reverse transcriptase (Invitrogen). Quantitative real-time PCR was performed using StepOnePlus Real-Time PCR system (Applied Biosystems, Foster City, CA, USA) and Thunderbird SYBR qPCR mix (Tokyobo, Osaka, Japan). Thermal cycling conditions included the initial stage at 95° C. for 5 minutes, and subsequent 40 cycles at 95° C. for 10 seconds, at 55° C. for 20 seconds and at 72° C. for […].

## CC(C)(C)c1ccc(C2=NC(=Cc3cccs3)C(=O)O2)cc1 [F56, 2-(4-(tert-butyl)phenyl)-4-(thiophen-2-ylmethylene)oxazol-5(4H)-one]
SCN^− transport
  SCN^− concentration on the apical surface: inhibited
NF-κ
  fluorescence of the excised lung (NF-κ activation): inhibited
[1]
  ion channel activity of AN01, CFTR and ENaC: did not change
Duox2 mRNA
  mRNA expression level of Duox2: did not change
